“Also recorded” adds a separate entry of the source.
Columns and labels:
Format in all cases: cell-based
misfolded SOD1 = assay: Misfolded SOD1 immunocytochemistry (B8H10 antibody) in human iAstrocytes; conditions: for SOD1 misfolding in human iAstrocytes: FIGS. 7 and 8 legends, iAstrocytes from controls and C9orf72, SOD1, sporadic ALS patients; for misfolded SOD1 positive cells: 10 μM, 24 hours
Method: The preparation of iAstrocytes has been described in Example 1. At Day 5, the 96 well plate was coated with fibronectin diluted 1:400 in PBS and allowed to set for cell adhesion. iAstrocytes were first washed in an appropriate volume of PBS before incubating for 5 min at 37° C. in lml of accutase. The accutase was neutralized in an appropriate volume of iAstrocyte medium and cells were collected in a 15 ml falcon and centrifuged at 200g for 4 min to form a pellet. The pellet was resuspended in an appropriate volume of medium and the cells were counted using a Burker hemocytometer. The cells were seeded at the desired density and were left for 24 hours to adhere. […]
At Day 7, iAstrocytes were fixed in 4% PFA. These were then stained with misfolded SOD1 antibody (B8H10), CD44 to identify cell area and DAPI. Columbus analysis software was used to quantify immunocytochemistry images. In each condition, the number of nuclei was established. In astrocytes stained for misfolded SOD1 protein aggregates, the number, intensity and area of misfolded SOD1 aggregates within the nucleus and surrounding perinuclear area were quantified as well as the percentage of cells positive for misfolded SOD1 accumulation.

induced MN cells = assay: Co-culture of iAstrocytes with human induced motor neurons from the same donors: MN survival; conditions: for MN survival on Day 3: 10 μM
Method: Induced Astrocytes from healthy controls or ALS patients were also used in a co-culture assay to determine their effect on the survival of induced MN cells from the same healthy controls or ALS patients.
The preparation of iAstrocytes and induced MN cells has been described in Example 1. […] The MN survival on Day 3 was evaluated as a percentage of survived MN cells observed on Day 1.

[1] = system: mouse motor neuron (MN) survival; assay: Co-culture of patient iAstrocytes with mouse Hb9-GFP motor neurons: MN survival; conditions: for mouse Hb9GFP+ motor neuron rescue: percentage of motor neuron survival: FIG. 4, 10uM, 3 days after administration, compared to vehicle (DMSO), sALS, SOD1, C9orf72 iAstrocytes
Method: Induced astrocytes from control or ALS patients were used in a co-culture assay to determine their effect on mouse motor neuron (MN) survival. Mouse embryonic stem cell-derived motor neurons expressing green fluorescence protein (GFP) under the control of the HB9 promoter were sorted and added to iAstrocytes from patients and controls. […] The survival of mouse MNs was monitored on Day 1 and 3 with confocal image acquisition.
The MN survival on Day 3 was evaluated as a percentage of survived MN cells observed on Day 1.

[2] = iAstrocytes and induced MNs from ALS patient with C9orf72 mutation
[3] = iAstrocytes from three ALS patients with C9orf72 mutation, mouse MNs

SMILES | percentage of misfolded SOD1 perinuclear aggregates (DMSO = 100%) (misfolded SOD1; FIG. 9, 10uM, 48 hours, iAstrocytes of sALS, SOD1, C9orf72 patients and controls, listed as (6a5)-6-methyl-5,6,6a,7-tetrahydro-4H-dibenzo[de,g]quinoline-10,11-diol) | SOD1 misfolding in human iAstrocytes (misfolded SOD1) | misfolded SOD1 positive cells (misfolded SOD1; SOD1 astrocytes compared with other cell types) | misfolded SOD1 positive cells (misfolded SOD1; all cell types (control, C9orf72, SOD1, sporadic iAstrocytes)) | MN survival on Day 3 (induced MN cells; [2]) | toxicity of astrocytes to MN cells (MN survival on Day 3) (induced MN cells; iAstrocytes and induced MNs from ALS patient with SOD1 mutation) | MN survival on Day 3 (induced MN cells; iAstrocytes and induced MNs from sALS patients) | mouse Hb9GFP+ motor neuron rescue: percentage of motor neuron survival [1] | MN survival on Day 3 (percentage of survived MN cells observed on Day 1) ([1]; iAstrocytes from ALS patients with C9orf72 mutation, mouse MNs, untreated no more than 33%) | survival of MN cells on Day 3 ([1]; iAstrocytes from ALS patients with SOD1 mutation, mouse MNs) | survival of MN cells on Day 3 [1, 3] | survival of MN cells on Day 3 ([1]; iAstrocytes from three sporadic ALS (sALS) patients, mouse MNs)
CN1CCc2cccc3c2[C@@H]1Cc1ccc(O)c(O)c1-3 [(6aS)-6-methyl-5,6,6a,7-tetrahydro-4H-dibenzo[de,g]quinoline-10,11-diol] | reduction of misfolded SOD1 in all patient lines treated; also recorded: significant reduction in misfolded SOD1 in 6 different patient lines | Reduced SOD1 misfolding | greatest decrease in SOD1 astrocytes | reduction of misfolded SOD1 positive cells across all cell types | the most significant outcome | most effectively dampened the toxicity of SOD1-derived astrocytes | beneficial at reducing toxicity caused by iAstrocytes from some sporadic patients over others | increase in percentage of motor neuron survival | up to 38% | most significant improvement | significantly improved | –
Nc1nc2ccc(OC(F)(F)F)cc2s1 [riluzole, reference compound] | – | Reduced SOD1 misfolding | – | – | – | – | – | – | – | – | – | –
C=C1CC[C@@H]2[C@](C)(CO)[C@H](O)CC[C@@]2(C)[C@@H]1C/C=C1/C(=O)OC[C@H]1O [andrographolide, reference compound] | – | Reduced SOD1 misfolding | – | – | the most significant outcome | – | – | increase in percentage of motor neuron survival | – | – | significantly improved | most significantly improved

From patent US20210353613A1, “TREATMENT OF NEUROLOGICAL DISEASE” (Aclipse One Inc., priority 2018, published 2021)
